Where two headings read alike, the source gives them in different places.
How the values were obtained:
PepX = experiment: Effect of protease inhibitors (PMSF, EDTA) on partially purified PepX activity, Gly-Pro-pNA substrate; assay type: biochemical, Lacticaseibacillus sp. PRA205; conditions: pH 7.0, 37 °C; for effect on PepX enzymatic activity (decrease): inhibitor 1 mmol/L
Protocol: PepX activity in the Lcb. casei PRA205 cytoplasmic extract was assessed in a 96-well plate using glycyl-prolyl-p-nitroanilide (Gly-Pro-pNA) as a specific substrate in the absence and presence of inhibitors. The reaction mixture containing 235 µL of 50 mmol/L Tris-Cl buffer (pH 7) and 5 µL of Gly-Pro-pNA substrate (previously dissolved in the same buffer in a concentration of 6.4 mmol/L) was pre-incubated at 37 °C for 5 min, before the addition of 10 µL of cytoplasmic extract. The same reactions were also carried out in the presence of EDTA and PMSF at increasing concentrations of 0.1, 0.5, 1, 5 and 10 mmol/L. Controls contained a buffer instead of an extract. After incubation for 2 h at 37 °C, reactions were stopped with 50 µL of acetic acid (30%) and the release of pNA was measured spectrophotometrically at 405 nm.
The effect of temperature on the PepX activity was determined as described above, modifying the incubation temperature while maintaining a constant pH of 7. The assay was carried out at four temperatures: 5 °C, 35 °C, 40 °C, and 45 °C. The effect of pH on enzyme activity was evaluated at a constant temperature of 37 °C by modifying the pH of the reaction buffer. Tris-HCL buffer (50 mmol/L) was utilized for reactions at pH 4–9, whereas sodium Tris-HCL buffer (50 mmol/L) was used for the assay at pH 7.0. The effect of protease inhibitors was tested by supplementing the reaction mix with EDTA or PMSF at final concentrations of 0, 1, 2, 5, or 10 mmol/L under standard conditions (pH 7.0, 37 °C).

[1] = tested on: di-peptidyl-peptidase-IV (DPP-IV); conditions: cited from earlier work
Protocol: (§1) Considering the cleavage specificity of PepX and the presence of proline residues in many dairy-derived BPs, the ability of PepX to hydrolyse selected BPs was evaluated. Selected BPs were well-known effective inhibitors of the enzymes ACE and di-peptidyl-peptidase-IV (DPP-IV). […] These two peptides have been identified in several fermented dairy products such as yoghurt and cheeses. The other peptides, ...

ACE = conditions: cited from earlier work
Protocol: as §1

blood pressure [2] = conditions: rats; cited from earlier work
blood pressure [3] = conditions: humans; cited from earlier work

O=S(=O)(F)Cc1ccccc1 [PMSF]
effect on PepX enzymatic activity (decrease) (PepX; vs control without inhibitor): more than 40%
effect on PepX enzymatic activity (PepX; inhibitor 5 mmol/L): completely abolished
effect on PepX enzymatic activity (PepX; inhibitor 10 mmol/L): completely abolished

APFPE
DPP-IV inhibition [1]: potent DPP-IV inhibitors

O=C(O)CN(CCN(CC(=O)O)CC(=O)O)CC(=O)O [EDTA]
effect on PepX enzymatic activity (decrease) (PepX; vs control without inhibitor): no effect
residual PepX activity (PepX; inhibitor 10 mmol/L, vs control without inhibitor): 40%

LPPT
DPP-IV inhibition [1]: potent DPP-IV inhibitors

Ile-Pro-Pro [IPP, anti-hypertensive lactotripeptide derived from β-casein]
ACE inhibition (ACE): potent ACE inhibitors
reduction of blood pressure in vivo (blood pressure [2]): effective in vivo in reducing blood pressure
reduction of blood pressure in vivo (blood pressure [3]): effective in vivo in reducing blood pressure

IPPL
DPP-IV inhibition [1]: potent DPP-IV inhibitors

Val-Pro-Pro [VPP, anti-hypertensive lactotripeptide derived from β-casein]
ACE inhibition (ACE): potent ACE inhibitors
reduction of blood pressure in vivo (blood pressure [2]): effective in vivo in reducing blood pressure
reduction of blood pressure in vivo (blood pressure [3]): effective in vivo in reducing blood pressure

Source: publication PMC13342036, “Genomic and Proteolytic Profiling of Lacticaseibacillus sp. PRA205: Insights into PepX-Mediated Bioactive Peptide Metabolism” (Probiotics and Antimicrobial Proteins, 2025)
